Several values for one entry are separate records, joined by “and”; a condition that tells them apart may be missing. Identical values can stand only once.
Tests used:
Format in all cases: physicochemical
[1] = Stability tests of compound of formula I and its monohydrochloride, phosphate and maleate (Example 4)
Method: The stability of the compound of formula I, the monohydrochloride of the compound of formula I in Example 1, the phosphate of the compound of formula I in Example 2, and the maleate of the compound of formula I in Example 3 were investigated.
Stability investigation conditions: 40° C./75% RH-closed, 40° C./75% RH-open, and 60° C.-closed; stability investigation content: changes in related substances and crystal forms.
Detection of related substances: about 6-7 mg of a sample was separately weighed out and added to a 10 mL volumetric flask; 50% aqueous acetonitrile solution was added for dissolution; the mixture was diluted to volume; and 10 μL of the sample was injected.

[2] = Solubility tests of compound of formula I, mixture of crystal forms A and B, and crystal form C at 37° C. (Example 13)
Method: An appropriate amount of a test sample was weighed out and added to a vial; 3 mL of a medium (water, SGF, FaSSIF, FeSSIF, or the like) was added; the mixture was stirred at 37° C.; […]; centrifugation was performed at 12000 rpm for 10 min; the supernatant was diluted with 50% aqueous acetonitrile solution to an appropriate multiple; and the concentration of the supernatant was determined.
Control and linearity: 10 mg of the compound of formula I was weighed out and added to a 50 mL volumetric flask, 50% aqueous acetonitrile solution was added for dissolution, and the mixture was diluted to volume. Two parts were prepared in parallel. The control was taken and diluted with 50% aqueous acetonitrile solution to 100 μg/mL, 50 μg/mL, and 10 μg/mL, 5 μL of the sample was injected, and a standard curve was plotted.

[3] = Effect of high temperature and high humidity on crystal form C (Example 12); settings: open, 60° C., 80% RH and 92.5% RH, 1 day and 3 days
Text: The sample was separately collected on 1d and 3d for XRPD testing.

[4] = Stability investigation of crystal form C of monohydrochloride, 1 month (Example 11)
Method: […] The stability of the crystal form was investigated.
Detection method for related substances of the stability sample: about 6 mg of the sample was weighed out and added to a 40 mL clean glass bottle; 10 mL of 50% aqueous acetonitrile solution was added; the sample was dissolved completely by ultrasonication; and 10 μL of the sample was injected for the test of the related substances, as shown in Table 15. The XRPD pattern is shown in FIG. 18, wherein HCl-salt Form 3-initial (hereinafter referred to as initial) represents the XRPD pattern of the crystal form C prepared in Example 8.

[5] = pH 6.8 (adjusted with sodium hydroxide solution), 37° C.
[6] = pH 7.4 (adjusted with sodium hydroxide solution), 37° C.
[7] = Initial, listed as Crystal form C of monohydrochloride of compound of formula I

SMILES: COc1cc(C)c2[nH]ccc2c1CN1CCC(OCC2CC2)CC1c1ccc(C(=O)O)cc1.O=C(O)C=CC(=O)O (centres unmarked) [Compound of formula I Maleate]
- Stability (conclusion in words from Table 7) ([1]; 40° C./75% RH closed/open and 60° C. closed, 2 wks): stable
- Appearance ([1]; 40° C./75% RH-closed-2 wks): White powder
- Maximum single impurity % ([1]; 40° C./75% RH-closed-2 wks): 0.08%
- Purity % ([1]; 40° C./75% RH-closed-2 wks): 99.78%
- Total impurity % ([1]; 40° C./75% RH-closed-2 wks): 0.22%
- Maximum single impurity % ([1]; 40° C./75% RH-open-2 wks): 0.09%
- Purity % ([1]; 40° C./75% RH-open-2 wks): 99.64%
- Total impurity % ([1]; 40° C./75% RH-open-2 wks): 0.36%
- Appearance ([1]; 60° C.-closed-2 wks): White powder
- Maximum single impurity % ([1]; 60° C.-closed-2 wks): 0.09%
- Purity % ([1]; 60° C.-closed-2 wks): 99.69%
- Total impurity % ([1]; 60° C.-closed-2 wks): 0.31%
- Appearance ([1]; Initial): White powder
- Maximum single impurity % ([1]; Initial): 0.08%
- Purity % ([1]; Initial): 99.80%
- Total impurity % ([1]; Initial): 0.20%

SMILES: COc1cc(C)c2[nH]ccc2c1CN1CCC(OCC2CC2)CC1c1ccc(C(=O)O)cc1.Cl (centres unmarked) [Crystal form C]
- Final pH ([2]; FaSSIF, 37° C.): 3.27
- solubility at 1 h ([2]; FaSSIF, 37° C.): 1160 µg/mL
- solubility at 24 h ([2]; FaSSIF, 37° C.): 880 µg/mL
- Final pH ([2]; FessIF, 37° C.): 4.83
- solubility at 1 h ([2]; FessIF, 37° C.): 640 µg/mL
- solubility at 24 h ([2]; FessIF, 37° C.): 420 µg/mL
- Final pH ([2]; SGF, 37° C.): 1.26
- solubility at 1 h ([2]; SGF, 37° C.): 940 µg/mL
- solubility at 24 h ([2]; SGF, 37° C.): 790 µg/mL
- Final pH ([2]; Water, 37° C.): 2.49
- Solubility in water compared to mixture of crystal forms A and B (in words) ([2]; Water, 37° C.): reduced solubility in water compared to the mixture of crystal forms A and B
- solubility at 1 h ([2]; Water, 37° C.): 8320 µg/mL
- solubility at 24 h ([2]; Water, 37° C.): 7540 µg/mL
- Solubility at 1 h (mg/mL) [2, 5]: 0.56(1 h) mg/mL
- Solubility (mg/mL) (48 h) [2, 5]: 0.21(48 h) mg/mL
- Final pH ([2]; pH 6.8, 37° C., 1 h line): 6.65
- Final pH ([2]; pH 6.8, 37° C., 48 h line): 6.82
- Solubility at 1 h (mg/mL) [2, 6]: 0.45(1 h) mg/mL
- Solubility (mg/mL) (48 h) [2, 6]: 0.24(48 h) mg/mL
- Final pH ([2]; pH 7.4, 37° C., 1 h line): 7.23
- Final pH ([2]; pH 7.4, 37° C., 48 h line): 7.42
- Crystal form by XRPD after exposure (FIGS. 19 and 20) [3]: not changed
- Chemical stability (in words) ([4]; 40° C./75% RH and 60° C. for 1 month): good chemical stability
- Maximum single impurity % ([4]; 40° C./75% RH-closed-1 M): 0.29%
- Purity % ([4]; 40° C./75% RH-closed-1 M): 99.58%
- Total impurity % ([4]; 40° C./75% RH-closed-1 M): 0.42%
- Maximum single impurity % ([4]; 40° C.75% RH-open-1 M): 0.27%
- Purity % ([4]; 40° C.75% RH-open-1 M): 99.60%
- Total impurity % ([4]; 40° C.75% RH-open-1 M): 0.40%
- Maximum single impurity % ([4]; 60° C.-closed-1 M): 0.32%
- Purity % ([4]; 60° C.-closed-1 M): 99.56%
- Total impurity % ([4]; 60° C.-closed-1 M): 0.44%
- Appearance ([4]; Initial): White powder
- Maximum single impurity % [4, 7]: 0.65% and 0.96%
- Purity % [4, 7]: 99.17% and 98.88%
- Total impurity % [4, 7]: 0.83% and 1.12%
- Crystal form by XRPD after storage (FIG. 18) ([4]; acceleration and high temperature conditions, 1 month): not changed

— US20260151379A1, “SALT TYPE AND CRYSTAL FORM OF COMPLEMENT FACTOR B INHIBITOR, AND PREPARATION METHOD THEREFOR AND APPLICATION THEREOF” (SHANGHAI MEIYUE BIOTECH DEVELOPMENT CO., LTD., priority 2022, published 2026)
